Source: patent US20260258038A1 (priority 2023, published 2026)

What was measured:
Pythium ultimum = Pythium ultimum / liquid culture (seedling damping off); assay type: cell-based; details: Globisporangium ultimum, liquid culture in PDB, 24° C., 2-3 days after application, read-out: control of Pythium ultimum (inhibition of growth, photometric)
Experimental: Pythium ultimum/Liquid Culture (Seedling Damping Off)
Mycelia fragments and oospores of a newly grown liquid culture of the fungus are directly mixed into nutrient broth (PDB potato dextrose broth). After placing a (DMSO) solution of test compound into a microtiter plate (96-well format), the nutrient broth containing the fungal mycelia/spore mixture is added. The test plates are incubated at 24° C. and the inhibition of growth is determined photometrically 2-3 days after application.

Phytophthora infestans = assay: whole plant or invertebrate; assay type: in vivo; details: in Solanum lycopersicum, foliar, read-out: control of Phytophthora infestans (percent disease control compared to untreated)
Plasmopara viticola = assay: whole plant or invertebrate; assay type: in vivo; details: foliar, read-out: control of Plasmopara viticola (percent disease control compared to untreated)

COC(=O)Nc1ccc(-c2cnc3c(C)cc(N(C)C(=O)c4ccc(F)c(OC)c4)cn23)cn1 [Compound 13, methyl N-[5-[6-[(4-fluoro-3-methoxy-benzoyl)-methyl-amino]-8-methyl-imidazo[1,2-a]pyridin-3-yl]-2-pyridyl]carbamate]
≥ 80%: inhibition at 20 ppm (Pythium ultimum) | pest or weed control at 200 ppm (Phytophthora infestans) | pest or weed control at 200 ppm (Plasmopara viticola)

COC(=O)Nc1ccc(-c2cnc3c(C)cc(N(C)C(=O)c4ccc(F)cc4)cn23)cn1 [Compound 45, methyl N-[5-[6-[(4-fluorobenzoyl)-methyl-amino]-8-methyl-imidazo[1,2-a]pyridin-3-yl]-2-pyridyl]carbamate]
≥ 80%: inhibition at 20 ppm (Pythium ultimum) | pest or weed control at 200 ppm (Phytophthora infestans) | pest or weed control at 200 ppm (Plasmopara viticola)

COC(=O)Nc1ccc(-c2cnc3c(C)cc(N(C)C(=O)c4ccc(F)c(C)c4)cn23)cn1 [Compound 11, methyl N-[5-[6-[(4-fluoro-3-methyl-benzoyl)-methyl-amino]-8-methyl-imidazo[1,2-a]pyridin-3-yl]-2-pyridyl]carbamate]
≥ 80%: inhibition at 20 ppm (Pythium ultimum) | pest or weed control at 200 ppm (Phytophthora infestans) | pest or weed control at 200 ppm (Plasmopara viticola)

COCN(C(=O)c1ccc(F)c(OC)c1)c1ccc2ncc(-c3ccc(NC(=O)OC)nc3)n2c1 [Compound 25, methyl N-[5-[6-[(4-fluoro-3-methoxy-benzoyl)-(methoxymethyl)amino]imidazo[1,2-a]pyridin-3-yl]-2-pyridyl]carbamate]
≥ 80%: inhibition at 20 ppm (Pythium ultimum) | pest or weed control at 200 ppm (Phytophthora infestans) | pest or weed control at 200 ppm (Plasmopara viticola)
